The values that follow come from publication PMC9223764, “In Vitro Selection and Characterization of HIV-1 Variants with Increased Resistance to LP-40, Enfuvirtide-Based Lipopeptide Inhibitor” (International Journal of Molecular Sciences, 2022).

What all share (assay type): cell-based
For test [1], the system named is LP40-V2 pseudovirus (HIV-1 NL4-3 Env mutant). The protocol:
(§1) The infectivity of HIV Env mutants and the inhibitory activities of membrane fusion inhibitors on mutants in TZM-bl cells were measured using a single-cycle infection assay as described previously. Briefly, the HIV pseudovirus was packed using an Env-coding plasmid, and pSG3ΔEnv was co-transfected into HEK293T cells. pSG3ΔEnv encodes an Env-defective, luciferase-expressing HIV-1 genome. After the pseudoviruses were harvested and filtrated, the amount of pseudoviruses was fixed via P24 antigen, and their infectivity was determined in TZM-bl cells. In order to measure the inhibitory activities of the inhibitors, inhibitors diluted serially 3-fold were mixed with an equal volume of pseudoviruses, and then 100 µL 1 × 10^5/mL TZM-bl cells were added to the mixture and incubated at 37 °C with 5% CO2 for 48 h. After that, TZM-bl cells were lysed using reporter lysis buffer, and IC50 values were calculated according to luciferase activity measured by luciferase assay reagents and a luminescence counter (Promega, Madison, WI, USA).

The subject of test [2] is HIV-1 NL4-3 pseudovirus (WT). As to conditions: for IC50: WT NL4-3, TZM-bl cells, 48 h, luciferase, triplicate, repeated three times. How it is done:
as §1

For a further test, the system named is HIV-1 NL4-3. The test can be described thus: In vitro selection of resistant virus, dose-escalating passages in C8166 cells. Conditions: 1.5- to 2-fold increase per passage, start 0.5 µM T20, 0.04 µM LP-40. How it is done:
To determine the resistance profile of LP-40, LP-40-resistant variants were selected using a dose-escalating method. The selection for drug-resistant HIV-1NL4-3 commenced with a concentration of 0.04 µM LP-40 (Figure 2B). Finally, after 32 passages, the induced concentration of LP-40 reached 200 µM. […] As shown in passage 9 (P-9), the concentration of LP-40 was 0.3 µM, and it can be observed that isoleucine was replaced by threonine at position 37 in the gp41 NHR coding region (I37T). G86D and C87Y were observed; at position 119 (E 119 G) in the gp41 CHR coding region, glutamate was replaced by glycine; at position 126 (N 126 K), asparagine was replaced by lysine. In P-24, the concentration of LP-40 was 8 µM; I37T in the NHR coding region was still present, and A15V, A21T, and L57H were also present, and N126K at position 126 in the CHR coding region was still present. In P-26, the concentration of LP-40 was 20 µM; at L33S, position 33 in the NHR coding region, leucine was replaced by serine and I37T remained. Additionally, a combination of mutations—E109N, N113D, E119Q, D121E, N125E, S129D, H132Y, and S133N (abbreviated as […])—appeared in the coding region of CHR. At a concentration of 200 µM, in addition to L33S and I37T, D36G, V38A, V38T, N42T, and I69V appeared in the NHR coding region, and a combination of the above eight mutations still existed in the CHR coding region. […]

Read-outs that look alike come from different tables or passages of the source. Where a SMILES comes first, the peptide text is derived from it. The star is where a group is joined. Palmitoyl = CCCCCCCCCCCCCCCC(=O)*

For `CCCCCCCCCCCCCCCC(=O)NCCCC[C@H](NC(=O)[C@H](CC(=O)O)NC(=O)[C@H](CC(C)C)NC(=O)[C@H](CCC(=O)O)NC(=O)[C@H](CC(C)C)NC(=O)[C@H](CC(C)C)NC(=O)[C@H](CCC(=O)O)NC(=O)[C@H](CCC(N)=O)NC(=O)[C@H](CCC(=O)O)NC(=O)[C@H](CC(N)=O)NC(=O)[C@H](CCCCN)NC(=O)[C@H](CCC(=O)O)NC(=O)[C@H](CCC(N)=O)NC(=O)[C@H](CCC(N)=O)NC(=O)[C@H](CC(N)=O)NC(=O)[C@H](CCC(N)=O)NC(=O)[C@H](CO)NC(=O)[C@H](CCC(=O)O)NC(=O)[C@H](CCC(=O)O)NC(=O)[C@@H](NC(=O)[C@H](CC(C)C)NC(=O)[C@H](CO)NC(=O)[C@H](Cc1c[nH]cn1)NC(=O)[C@@H](NC(=O)[C@H](CC(C)C)NC(=O)[C@H](CO)NC(=O)[C@@H](NC(=O)[C@H](Cc1ccc(O)cc1)NC(C)=O)[C@@H](C)O)[C@@H](C)CC)[C@@H](C)CC)C(N)=O` [LP-40] (Ac-YTSLIHSLIEESQNQQEKNEQELLELDK(Palmitoyl)-NH2), the IC50 (as a rule, the concentration needed to halve the response being measured) in test [1] (LP40-V2 (Env selected at LP-40 0.3 µM), TZM-bl cells, 48 h, luciferase, mean ± SD, triplicate, repeated three times) was 374 ± 29.8 nM; in test [2] (Table 1, mean ± SD), 29.7 ± 4.52 nM; in test [2] (Table 2, mean ± SD), 31.5 ± 10.4 nM; in test [2] (Table 3, means), 27.3 nM. Also, the “Fold change in IC50” value in test [1] (LP40-V2 relative to WT NL4-3, Table 1) is given as 12.59 fold; in test [2] (WT NL4-3 reference, Table 1), 1.00 fold. In addition, the “Induced inhibitor concentration reached after 32 passages” value in the test with HIV-1 NL4-3 came to 200 µM.
